# Source: patent publication US9856273B2, “ETP derivatives” (priority 2012, dated 2018)
# Tested on: A549 lung cancer SQ xenografts
# Type: in vivo, mouse
# Details: A549 xenograft, 10 mg/kg orally once daily for 31 days
# Description: Human A549 non-small lung cancer cells (5×10^6) were resuspended in serum-free DMEM medium and Matrigel (ration of 1:1) and subcutaneously injected into the flank of 5-6 weeks old female NOD/SCID/IL-2rg(ko)(NSG). When palpable tumor sizes reached at approximately 50 mm^3, mice were divided into two groups (vehicle=10, treatment=10). Then, ETP69 was orally administered at 10 mg/kg with vehicle (10% DMSO+30% Solutol+60% saline), once daily for 31 days. Tumor volumes were calculated by the formula 1/2a×b^2, where a is the long diameter, and b is the short diameter. Tumor volumes correlate with tumor weights. The statistical significance of group differences was analyzed using a Student's t-test with the two-tailed distribution. P values less than 0.05 were considered statistically significant.
structure (smiles),measurement,value
"CN1C(=O)[C@@]23C[C@](C)(C#N)[C@H](c4ccc5c(c4)OCO5)N2C(=O)[C@]1(C)SS3 (racemic) [ETP69, Rac-(3S,6S,7S,8aS)-6-(Benzo[d][1,3]dioxol-5-yl)-2,3,7-trimethyl-1,4-dioxohexahydro-6H-3,8a-epidithiopyrrolo[1,2-a]pyrazine-7-carbonitrile]",toxicity symptoms,no observable toxicity symptoms
same,tumor volume,decreased
same,tumor weight,decreased
